Reference: US10570129B2 (Zoetis Services LLC, priority 2015, dated 2020)

Tests used:
[1] = tested on: Haemonchus contortus L3; assay: microbe, parasite or virus in culture; format: cell-based; conditions: for minimal effective concentration: Haemonchus contortus, 96 h, read-out: HcL3 Minimal Effective Concentration (MEC)
[2] = tested on: D. immitis microfilariae; assay: Dirofilaria immitis, microfilariae (DiMF) in vitro motility assay; format: cell-based; conditions: for minimal effective concentration: Dirofilaria immitis, 72 h, read-out: DiMF minimally effective dose (MEC)

Compound	minimal effective concentration [1] [µM]	minimal effective concentration [2] [µM]	HcL3 Minimal Effective Concentration (MEC) [1] [µM]	DiMF minimally effective dose (MEC) ([2]; decrease in microfilariae motility by subjective visual assessment, observed at 72 hours) [µM]
N#Cc1ccc2c3c(n(C(=O)NCc4ccnc(Cl)c4)c2c1)CCN(C/C=C/c1ccc(Cl)cc1)C3 [Example 34, (E)-2-(3-(4-chlorophenyl)allyl)-N-((2-chloropyridin-4-yl)methyl)-7-cyano-1,2,3,4-tetrahydro-5H-pyrido[4,3-b]indole-5-carboxamide]	3.3	3.3		
O=C(NCc1ccnc(F)c1)n1c2c(c3cc(-c4ccc(F)cc4)ccc31)CN(C/C=C/c1ccc(Cl)cc1)CC2 [Example 463, (E)-2-(3-(4-chlorophenyl)allyl)-8-(4-fluorophenyl)-N-((2-fluoropyridin-4-yl)methyl)-1,2,3,4-tetrahydro-5H-pyrido[4,3-b]indole-5-carboxamide]	> 100	> 100		
COc1cc(CNC(=O)n2c3c(c4cc(C#N)ccc42)CN(C/C=C/c2ccc(Cl)c(Cl)c2)CC3)ccn1 [Example 69, (E)-8-cyano-2-(3-(3,4-dichlorophenyl)allyl)-N-((2-methoxypyridin-4-yl)methyl)-1,2,3,4-tetrahydro-5H-pyrido[4,3-b]indole-5-carboxamide]	0.02	0.03		
O=C(NCc1ccnc(Cl)c1)n1c2c(c3cc(C(F)(F)F)ccc31)CN(C/C=C/c1ccc(F)cc1)CC2 [Example 334, (E)-N-((2-chloropyridin-4-yl)methyl)-2-(3-(4-fluorophenyl)allyl)-8-(trifluoromethyl)-1,2,3,4-tetrahydro-5H-pyrido[4,3-b]indole-5-carboxamide]	1	10		
O=C(NCc1ccnc(Cl)c1)n1c2c(c3cc(Cl)c(Cl)cc31)CN(C/C=C/c1ccc(OC(F)(F)F)cc1)CC2 [Example 284, (E)-7,8-dichloro-N-((2-chloropyridin-4-yl)methyl)-2-(3-(4-(trifluoro-methoxy)phenyl)allyl)-1,2,3,4-tetrahydro-5H-pyrido[4,3-b]indole-5-carboxamide]	> 100	10		
(E)-7-chloro-2-(3-(4-cyano-3-fluorophenyl)allyl)-N-((2-fluoropyridin-4-yl)methyl)-1,2,3,4-tetrahydro-5H-pyrido[4,3-b]indole-5-carboxamide [Example 225]			1.8	3.3
O=C(NCc1ccnc(Cl)c1)n1c2c(c3c(C(F)(F)F)cccc31)CN(C/C=C/c1ccc(Cl)cc1)CC2 [Example 157, (E)-2-(3-(4-chlorophenyl)allyl)-N-((2-chloropyridin-4-yl)methyl)-9-(trifluoromethyl)-1,2,3,4-tetrahydro-5H-pyrido[4,3-b]indole-5-carboxamide]	3.8	11.9		
O=C(NCc1ccnc(Cl)c1)n1c2c(c3cc(Cl)ccc31)CN(C/C=C/c1ccncc1)CC2 [Example 248, (E)-8-chloro-N-((2-chloropyridin-4-yl)methyl)-2-(3-(pyridin-4-yl)allyl)-1,2,3,4-tetrahydro-5H-pyrido[4,3-b]indole-5-carboxamide]	0.4	0.5		
O=C(NCc1ccnc(Cl)c1)n1c2c(c3ccc(OC(F)(F)F)cc31)CN(C/C=C/c1ccc(Br)cc1F)CC2 [Example 338, (E)-2-(3-(4-bromo-2-fluorophenyl)allyl)-N-((2-chloropyridin-4-yl)methyl)-7-(trifluoromethoxy)-1,2,3,4-tetrahydro-5H-pyrido[4,3-b]indole-5-carboxamide]	0.3	10		
Cc1ccc2c3c(n(C(=O)NCc4ccnc(Cl)c4)c2c1)CCN(C/C=C/c1ccc(Cl)cc1)C3 [Example 146, (E)-2-(3-(4-chlorophenyl)allyl)-N-((2-chloropyridin-4-yl)methyl)-7-methyl-1,2,3,4-tetrahydro-5H-pyrido[4,3-b]indole-5-carboxamide]	0.4	10		
O=C(NCc1ccnc(Cl)c1)n1c2c(c3cc(Cl)ccc31)CN(C/C=C/c1ccc(Cl)cc1F)CC2 [Example 233, (E)-8-chloro-2-(3-(4-chloro-2-fluorophenyl)allyl)-N-((2-chloropyridin-4-yl)methyl)-1,2,3,4-tetrahydro-5H-pyrido[4,3-b]indole-5-carboxamide]	0.01	1.8		
N#Cc1ccc2c3c(n(C(=O)NCc4ccnc(F)c4)c2c1)CCN(C/C=C/c1ccc(Cl)cc1F)C3 [Example 52, (E)-2-(3-(4-chloro-2-fluorophenyl)allyl)-7-cyano-N-((2-fluoropyridin-4-yl)methyl)-1,2,3,4-tetrahydro-5H-pyrido[4,3-b]indole-5-carboxamide]	5.7	10		
N#Cc1ccc(/C=C/CN2CCc3c(c4cc(C(F)(F)F)ccc4n3C(=O)NCc3ccnc(F)c3)C2)cc1F [Example 416, (E)-2-(3-(4-cyano-3-fluorophenyl)allyl)-N-((2-fluoropyridin-4-yl)methyl)-8-(trifluoromethyl)-1,2,3,4-tetrahydro-5H-pyrido[4,3-b]indole-5-carboxamide]	1.8	57.4		
O=C(NCc1ccnc(Cl)c1)n1c2c(c3ccc(C(F)(F)F)cc31)CN(C/C=C/c1ccc(Cl)c(Cl)c1)CC2 [Example 158, (E)-N-((2-chloropyridin-4-yl)methyl)-2-(3-(3,4-dichlorophenyl)allyl)-7-(trifluoromethyl)-1,2,3,4-tetrahydro-5H-pyrido[4,3-b]indole-5-carboxamide]	2.2	16.8		
O=C(NCc1ccnc(Cl)c1)n1c2c(c3cc(Cl)c(Cl)cc31)CN(C/C=C/c1ccc(Cl)c(Cl)c1)CC2 [Example 281, (E)-7,8-dichloro-N-((2-chloropyridin-4-yl)methyl)-2-(3-(3,4-dichlorophenyl)allyl)-1,2,3,4-tetrahydro-5H-pyrido[4,3-b]indole-5-carboxamide]	1	> 100		
N#Cc1ccc(/C=C/CN2CCc3c(c4cc(C(F)(F)F)ccc4n3C(=O)NCc3ccnc(Cl)c3)C2)cc1 [Example 331, (E)-N-((2-chloropyridin-4-yl)methyl)-2-(3-(4-cyanophenyl)allyl)-8-(trifluoromethyl)-1,2,3,4-tetrahydro-5H-pyrido[4,3-b]indole-5-carboxamide]	0.7	24		
O=C(NCc1ccnc(Cl)c1)n1c2c(c3cc(C(F)(F)F)ccc31)CN(C/C=C/c1ccc(F)cc1F)CC2 [Example 412, (E)-N-((2-chloropyridin-4-yl)methyl)-2-(3-(2,4-difluorophenyl)allyl)-8-(trifluoromethyl)-1,2,3,4-tetrahydro-5H-pyrido[4,3-b]indole-5-carboxamide]	1.8	10		
Cc1cc2c3c(n(C(=O)NCc4ccnc(Cl)c4)c2cc1C#N)CCN(C/C=C/c1ccc(Cl)cc1)C3 [Example 176, (E)-2-(3-(4-chlorophenyl)allyl)-N-((2-chloropyridin-4-yl)methyl)-7-cyano-8-methyl-1,2,3,4-tetrahydro-5H-pyrido[4,3-b]indole-5-carboxamide]	0.2	3.3		
Cc1cccc2c1c1c(n2C(=O)NCc2ccnc(Cl)c2)CCN(C/C=C/c2ccc(F)cc2)C1 [Example 149, (E)-N-((2-chloropyridin-4-yl)methyl)-2-(3-(4-fluorophenyl)allyl)-9-methyl-1,2,3,4-tetrahydro-5H-pyrido[4,3-b]indole-5-carboxamide]	4.4	10		
O=C(NCc1ccnc(F)c1)n1c2c(c3cc(OC(F)(F)F)ccc31)CN(C/C=C/c1ccc(F)c(F)c1)CC2 [Example 405, (E)-2-(3-(3,4-difluorophenyl)allyl)-N-((2-fluoropyridin-4-yl)methyl)-8-(trifluoromethoxy)-1,2,3,4-tetrahydro-5H-pyrido[4,3-b]indole-5-carboxamide]	0.3	5.7		
O=C(NCc1ccnc(Cl)c1)n1c2c(c3cc(OC(F)(F)F)ccc31)CN(C/C=C/c1ccc(F)c(Cl)c1)CC2 [Example 388, (E)-2-(3-(3-chloro-4-fluorophenyl)allyl)-N-((2-chloropyridin-4-yl)methyl)-8-(trifluoromethoxy)-1,2,3,4-tetrahydro-5H-pyrido[4,3-b]indole-5-carboxamide]	1.8	> 100		
N#Cc1ccc2c3c(n(C(=O)NCc4ccnc(Cl)c4)c2c1)CCN(C/C=C/c1ccncc1)C3 [Example 37, (E)-N-((2-chloropyridin-4-yl)methyl)-7-cyano-2-(3-(pyridin-4-yl)allyl)-1,2,3,4-tetrahydro-5H-pyrido[4,3-b]indole-5-carboxamide]	> 100	33		
O=C(NCc1ccnc(Cl)c1)n1c2c(c3ccc(Cl)cc31)CN(C/C=C/c1ccc(Cl)cc1)CC2 [Example 213, (E)-7-chloro-2-(3-(4-chlorophenyl)allyl)-N-((2-chloropyridin-4-yl)methyl)-1,2,3,4-tetrahydro-5H-pyrido[4,3-b]indole-5-carboxamide]	0.3	3.3		
O=C(NCc1ccnc(Cl)c1)n1c2c(c3cccc(Cl)c31)CN(C/C=C/c1ccc(F)cc1)CC2 [Example 269, (E)-6-chloro-N-((2-chloropyridin-4-yl)methyl)-2-(3-(4-fluorophenyl)allyl)-1,2,3,4-tetrahydro-5H-pyrido[4,3-b]indole-5-carboxamide]	> 100	3.3		
O=C(NCc1ccnc(F)c1)n1c2c(c3ccc(OC(F)(F)F)cc31)CN(C/C=C/c1ccc(F)c(Cl)c1)CC2 [Example 375, (E)-2-(3-(3-chloro-4-fluorophenyl)allyl)-N-((2-fluoropyridin-4-yl)methyl)-7-(trifluoromethoxy)-1,2,3,4-tetrahydro-5H-pyrido[4,3-b]indole-5-carboxamide]	1.8	18.2		
